{
  "source": "patent US7846964B2",
  "about": "“Thiophene derivatives as spingosine-1-phosphate-1 receptor agonists” (Actelion Pharmaceuticals Ltd., priority 2005, dated 2010)",
  "data": [
    {"biological_target": "recombinant human S1P1 receptor (Homo sapiens, UniProt P21453)", "sequence (P21453 whole entry)": "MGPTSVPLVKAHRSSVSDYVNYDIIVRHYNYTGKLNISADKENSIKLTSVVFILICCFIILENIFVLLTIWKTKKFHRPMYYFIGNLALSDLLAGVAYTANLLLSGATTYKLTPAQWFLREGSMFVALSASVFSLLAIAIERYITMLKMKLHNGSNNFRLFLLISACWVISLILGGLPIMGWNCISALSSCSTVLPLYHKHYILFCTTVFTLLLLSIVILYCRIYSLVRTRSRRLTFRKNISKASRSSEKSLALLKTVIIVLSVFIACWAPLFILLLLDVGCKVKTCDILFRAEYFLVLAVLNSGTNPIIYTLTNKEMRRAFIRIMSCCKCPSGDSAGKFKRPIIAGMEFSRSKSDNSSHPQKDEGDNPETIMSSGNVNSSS", "experiment": "GTPγS assay to determine EC50 values", "assay_type": "biochemical", "conditions": "35S-GTPγS binding, membrane preparations of CHO cells expressing recombinant human S1P1 receptor", "procedure": "The pH is 7.4. Test compounds are dissolved and diluted in 100% DMSO and pre-incubated at room temperature for 30 min in 150 μl of the above assay buffer, in the absence of ^35S-GTPγS. After addition of 50 μl of ^35S-GTPγS, the assay is incubated for 1 h at room temperature. […] Membrane-bound ^35S-GTPγS is measured with a TopCount from Packard Biosciences.\nSpecific binding is determined by subtracting non-specific binding from maximal binding. Maximal binding is the amount of cpm bound to the Multiscreen plate in the presence of 10 μM of S1P. Non-specific binding is the amount of binding in the absence of an agonist in the assay.\nThe EC50 values were determined according to the method described above.", "units": {"EC50": "nM"}, "values": [
      {"smiles": "Cc1sc(C(=O)CCc2ccc(CC(O)CO)cc2)c2c1[C@H]1[C@@H](C2)C1(C)C", "note": "(stereo partly drawn) [Example 1, 3-[4-((2S/R)-2,3-dihydroxy-propyl)-phenyl]-1-((1aS,5aR)-1,1,2-trimethyl-1,1a,5,5a-tetrahydro-3-thia-cyclopropa[a]pentalen-4-yl)-propan-1-one]", "EC50": 12},
      {"smiles": "Cc1sc(C(=O)CCc2ccc(CCCN)cc2)c2c1[C@H]1[C@@H](C2)C1(C)C", "note": "[Example 2]", "EC50": 3},
      {"smiles": "Cc1sc(C(=O)CCc2ccc(CCC(N)=O)cc2)c2c1[C@H]1[C@@H](C2)C1(C)C", "note": "[Example 13]", "EC50": 13},
      {"smiles": "Cc1sc(C(=O)CCc2ccc(C(=O)NCCN)cc2)c2c1[C@H]1[C@@H](C2)C1(C)C", "note": "[Example 31]", "EC50": 6},
      {"smiles": "Cc1cc(CCC(=O)c2sc(C)c3c2C[C@@H]2[C@H]3C2(C)C)ccc1OCCN(C)C", "note": "[Example 37]", "EC50": 58},
      {"smiles": "Cc1cc(CCC(=O)c2sc(C)c3c2CC2C3C2(C)C)ccc1OCC(O)CNCCC(=O)O", "note": "(stereo not drawn) [Example 48]", "EC50": 2},
      {"smiles": "Cc1sc(C(=O)CCc2ccc(OCC(O)CNCCC(=O)O)c(Cl)c2)c2c1C1C(C2)C1(C)C", "note": "(stereo not drawn) [Example 60]", "EC50": 1.4},
      {"smiles": "Cc1cc(CCC(=O)c2sc(C)c3c2C[C@@H]2[C@H]3C2(C)C)cc(C)c1OCC(O)CN", "note": "(stereo partly drawn) [Example 99, 3-[4-(3-amino-2-hydroxy-propoxy)-3,5-dimethyl-phenyl]-1-((1aS,5aR)-1,1,2-trimethyl-1,1a,5,5a-tetrahydro-3-thia-cyclopropa[a]pentalen-4-yl)-propan-1-one]", "EC50": 1.1},
      {"smiles": "COc1cc(CCC(=O)c2sc(C)c3c2CC2C3C2(C)C)cc(Cl)c1OCCN1CCC(C(=O)O)C1", "note": "(stereo not drawn) [Example 149]", "EC50": 2},
      {"smiles": "COc1cc(CCC(=O)c2sc(C)c3c2CC2C3C2(C)C)cc(Cl)c1OCC(O)CN1CCNCC1", "note": "(stereo not drawn) [Example 175]", "EC50": 28},
      {"smiles": "COCC(O)COc1c(C)cc(CCC(=O)c2sc(C)c3c2C[C@@H]2[C@H]3C2(C)C)cc1C", "note": "(stereo partly drawn) [Example 233, 3-[4-(2-Hydroxy-3-methoxy-propoxy)-3,5-dimethyl-phenyl]-1-((1aS,5aR)-1,1,2-trimethyl-1,1a,5,5a-tetrahydro-3-thia-cyclopropa[a]pentalen-4-yl)-propan-1-one]", "EC50": 2.3},
      {"smiles": "Cc1cc(CCC(=O)c2sc(C)c3c2C[C@@H]2[C@H]3C2(C)C)cc(C)c1OCC(O)CNC(=O)CN", "note": "(stereo partly drawn) [Example 234, 2-amino-N-(3-{2,6-dimethyl-4-[3-oxo-3-((1aS,5aR)-1,1,2-trimethyl-1,1a,5,5a-tetrahydro-3-thia-cyclopropa[a]pentalen-4-yl)-propyl]-phenoxy}-2-hydroxy-propyl)-acetamide]", "EC50": 2.7},
      {"smiles": "Cc1cc(CCC(=O)c2sc(C)c3c2C[C@@H]2[C@H]3C2(C)C)cc(C)c1CCC(=O)NC(CO)CO", "note": "[Example 237, 3-{2,6-Dimethyl-4-[3-oxo-3-((1aS,5aR)-1,1,2-trimethyl-1,1a,5,5a-tetrahydro-3-thia-cyclopropa [a]pentalen-4-yl)-propyl]-phenyl}-N-(2-hydroxy-1-hydroxymethyl-ethyl)-propionamide]", "EC50": 2.9},
      {"smiles": "Cc1cc(CCC(=O)c2sc(C)c3c2C[C@@H]2[C@H]3C2(C)C)cc(C)c1CC(O)CO", "note": "(stereo partly drawn) [Example 239, 3-[4-(2,3-dihydroxy-propyl)-3,5-dimethyl-phenyl]-1-((1aS,5aR)-1,1,2-trimethyl-1,1a,5,5a-tetrahydro-3-thia-cyclopropa[a]pentalen-4-yl)-propan-1-one]", "EC50": 0.8},
      {"smiles": "CCc1cc(CCC(=O)c2sc(C)c3c2CC2C3C2(C)C)cc(C)c1OCC(O)CNC(=O)CO", "note": "(stereo not drawn) [Example 244]", "EC50": 1.1}
    ]}
  ]
}
